Where no end group is shown, it is not given here.
What was measured:
[1] = test system: MFF knockout MEFs; test: Mitochondrial ROS (MitoSox), MFF knockout MEFs; type: cell-based, mouse; settings: 4 µM P259 daily for three days, vs no peptide; 3 independent experiments, three technical replicates; ns p = 0.23
Source text: (§1) Data are of 3 independent experiments with the whiskers calculated by the Turkey method. e. […]
production in an Mff -dependent manner. Mitochondrial reactive oxygen species production […]
treatment in each cell line. […]
(§2) determined by an unpaired, two -tailed t test). g. […]
control (no peptide treatment). Data are mean ± s.e. from 3 independent experiments.
(§3) Mitochondrial reactive oxygen species determination […]
and 1% penicillin-streptomycin solution (Corning, NY, USA). […]
(§4) and without phenol red. […] After incubation
(§5) HEPES, and without phenol red. […]
(§6) epifluorescence microscope with a 10X objective (Keyence). The Cy5 filter (Keyence) was used to autofocus on the mitochondria plane. […]
(§7) calculated as the average MitoSox signal per cell. […]

[2] = test system: SH-SY5Y cells; test: Oxygen consumption rate, SH-SY5Y; type: cell-based, human; settings: overnight treatment, XFe24 analyzer
[3] = test system: Mfn2; test: Binding of recombinant Mfn2 to surface-conjugated P259 (AGILE-R100 graphene sensor); set-up: species or system human; settings: P259 surface-conjugated (50 nM), 100 nM protein, RIPA buffer pH 8.0; n = 3, with 3 replicates
Source text: Figure 1 Rational peptide design identifies a novel inhibitor of the Mff-Drp1 protein-protein interaction. (a) A scheme of the rationale behind the inhibitor design. […] Surface and ribbon diagrams of Drp1 structure (PDB, 4BEJ) with the GTPase, bundle signaling element (BSE), and stalk domains highlighted. (d) A heatmap representing sequence conservation of human proteins that contain a region similar to P259. Sequence conservation corresponds to the number of residues similar/identical to P259 from each sequence. […] The obtained graph is of the mean standardized response and ± s.e. as a function of time for n = 3 individual experiments, with 3 technical replicates each. […] Represented Western blot is cropped from a full blot shown in the Expanded Western Blots section of the Supplementary Information. (h) Relative GTPase activity of recombinant Drp1 in the presence of 1 µM of peptide (n = 3–5). Data are mean ± s.e. from 3–5 independent experiments per condition.
Drp1 and Mff. Utilizing BioPython, a pairwise alignment was performed between each ortholog […]
brief, an automated microwave peptide synthesizer (Liberty, CEM Corporation) was used to perform solid phase peptide synthesis by a series of coupling of fluorenylmethoxycarbonyl (Fmoc)-protected amino acids and hydroxybenz otriazol (HOBt) […] reaction steps. […]

[4] = test system: primary cortical neurons; test: Mitochondrial membrane potential (TMRM), primary cortical neurons; type: cell-based, rat; settings: overnight treatment; n = 3, with 3 replicates
Procedure: Bottom, quantification of the form factor (degree of branching) and aspect ratio (major/minor axis length). At least 10,000 mitochondrial fragments were analyzed for each condition. Mitochondrial reactive oxygen species production (MitoSox Red) (b) and membrane potential (TMRM) (c) after overnight treatment with indicated concentrations of peptide (n = 3, with 3 replicates). […] Overlay of live microscopy imaging at time 0 (green) and 150 (red) seconds. […] An estimation of the % mobile mitochondria from the Pearson coefficient of each set of images. Data are mean ± s.e.
Following treatment, cells were washed with treatment media.
The Cy5 filter was used to autofocus on the mitochondria plane. Nuclei were imaged with a DAPI filter and the mitoROS (MitoSox) or membrane potential (TMRM) image was acquired with a TRITC filter. […] MitoROS was calculated as the average MitoSox signal per cell. The mitochondrial membrane potential was calculated as the average TMRM signal in the mitochondrial mask.
as §3
and 1% penicillin-streptomycin solution (Corning, NY, USA). Primary cortical neurons were treated with increasing concentrations of peptides in NbActiv1 media. HD Patient- and adult- […]
as §4, §5, §7

[5] = test system: MFF knockout MEFs; test: Mitochondrial membrane potential (TMRM), MFF knockout MEFs; type: cell-based, mouse; settings: 20 µM P259 overnight, vs no peptide; 3 independent experiments, three technical replicates; ns p = 0.93
Procedure: as §1, §2
control (no peptide treatment). Data are mean ± s.e. from 3 independent experiments. […]
as §4, §5, §6
Mitochondrial membrane potential determination
After treatment, cells were washed with
Cells were incubated in a 37
°C incubator for 30 minutes. […]

In the case of “YGRKKRRQRRRGSGIIQLPEIVVV-NH2 (C-terminus assumed) [P259]”, the “effect on mitochondrial ROS levels, Mff knockout MEFs” value [1] is reported as “insensitive”, the “electron flux (electron transport chain flux)” value ([2]; 4 µM (Fig. 2f), n = 3, with at least 3 replicates) is reported as “dose-dependent decline” and the “basal oxygen consumption rate” value ([2]; indicated concentrations, 3 independent experiments) is reported as “dose-dependent decline”. For the same substance, the “binding to Mfn2” value [3] was “only negligible binding”, the mitochondrial membrane potential [4] was “decreased membrane potential” and the “effect on mitochondrial membrane potential, Mff knockout MEFs” value [5] was “insensitive”.
